Assay [1] has as its target Induced myeloid leukemia cell differentiation protein Mcl-1 (Homo sapiens, UniProt Q07820). It is filed as functional.
Assay [2] in a line: A549 cell cytotoxicity, dose response, cytotoxicity control, plate reader, cherry-pick, antagonist series (AID 743412). The class given is functional, cell-based.
The nature of assay [3]: blockers of bursicon-stimulated LGR2 cAMP reporter – cell-based, HEK293, CRE-luciferase reporter, cherry pick, set 2, dose response (AID 743343).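 Also: transfected cells were stimulated with diluted bursicon conditioned medium after compound addition.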 The class given is functional. In general terms: Reporter assays use an easily measured gene product as a stand-in for the process of interest.
Assay [4] in a line: blockade of melanocortin 4 receptor signaling – cell-based, plate reader, cherry pick, counter-screen for LGR2 antagonist project, dose response (AID 743444).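 Also: transfected HEK 293 cells stimulated with alpha-MSH peptide; potency of inhibitors of the alpha-MSH evoked signal.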 The class given is functional. Background: A counterscreen serves to expose hits that act by an unwanted route or on another target.
Assay [5] is described as follows: microbe, parasite or virus in culture. The class given is functional. Particulars: Mycobacterium tuberculosis.
The target in assay [6] is Peroxisome proliferator-activated receptor gamma/Nuclear receptor coactivator 2 (Homo sapiens, UniProt P37231). The class given is functional.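 Also: agonist potency for raising coactivator recruitment to the receptor.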
Assay [7] addresses Peroxisome proliferator-activated receptor gamma/Nuclear receptor coactivator 1 (Homo sapiens, UniProt P37231). It is filed as functional.
Assay [8] addresses Peroxisome proliferator-activated receptor gamma/Nuclear receptor coactivator 3 (Homo sapiens, UniProt P37231). The class given is functional.
The target in assay [9] is T1, Mannose-6-phosphate isomerase (Homo sapiens, UniProt P34949).
T1 sequence (P34949 whole entry): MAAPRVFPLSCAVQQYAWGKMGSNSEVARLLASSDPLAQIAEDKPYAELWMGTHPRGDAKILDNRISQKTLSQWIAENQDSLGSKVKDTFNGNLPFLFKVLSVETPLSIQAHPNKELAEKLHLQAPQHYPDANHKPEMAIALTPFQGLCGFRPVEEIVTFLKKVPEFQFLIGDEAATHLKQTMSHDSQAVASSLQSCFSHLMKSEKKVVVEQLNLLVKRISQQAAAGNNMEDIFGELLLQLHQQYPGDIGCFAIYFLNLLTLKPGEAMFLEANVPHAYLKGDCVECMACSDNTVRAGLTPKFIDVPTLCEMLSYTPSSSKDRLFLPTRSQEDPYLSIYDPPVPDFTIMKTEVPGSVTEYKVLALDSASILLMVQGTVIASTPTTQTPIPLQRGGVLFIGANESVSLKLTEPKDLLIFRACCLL
Put plainly: MPI inhibition at elevated mannose 6-phosphate – biochemical, fluorescence intensity, high mannose 6-phosphate, primary screen (AID 1220).

For the next assay, the target named is T2, Protein RecA (Mycobacterium tuberculosis, UniProt P9WHJ3).
T2 sequence (P9WHJ3 whole entry): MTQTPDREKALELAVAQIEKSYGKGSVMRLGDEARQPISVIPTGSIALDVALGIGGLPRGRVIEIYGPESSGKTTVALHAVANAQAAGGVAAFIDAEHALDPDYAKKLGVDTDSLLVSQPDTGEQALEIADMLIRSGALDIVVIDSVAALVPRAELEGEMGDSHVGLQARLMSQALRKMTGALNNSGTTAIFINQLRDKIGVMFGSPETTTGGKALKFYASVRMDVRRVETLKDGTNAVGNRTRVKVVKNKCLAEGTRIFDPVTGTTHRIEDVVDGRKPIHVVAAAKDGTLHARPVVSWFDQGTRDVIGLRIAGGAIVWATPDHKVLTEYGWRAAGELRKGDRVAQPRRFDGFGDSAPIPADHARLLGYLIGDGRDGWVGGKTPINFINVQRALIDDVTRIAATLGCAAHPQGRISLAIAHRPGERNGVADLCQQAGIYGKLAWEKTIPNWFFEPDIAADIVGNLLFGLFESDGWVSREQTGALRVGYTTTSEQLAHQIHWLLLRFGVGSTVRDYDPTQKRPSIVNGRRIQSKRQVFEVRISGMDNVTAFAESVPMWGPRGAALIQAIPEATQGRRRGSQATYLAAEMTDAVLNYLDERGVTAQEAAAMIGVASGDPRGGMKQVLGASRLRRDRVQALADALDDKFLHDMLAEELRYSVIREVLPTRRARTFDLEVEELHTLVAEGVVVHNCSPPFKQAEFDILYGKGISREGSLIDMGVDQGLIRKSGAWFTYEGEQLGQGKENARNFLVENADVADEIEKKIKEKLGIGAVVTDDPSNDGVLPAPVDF
Nature of the assay: Fluorescence Cell-Free Homogeneous Dose Retest to Identify Inhibitors of RecA-Intein Splicing Activity. [Related pubchem assays (depositor defined):AID2097, AID2223, AID489010, AID492950]. The class given is functional.

The next assay deals with Cytochrome P450 3A4 (Homo sapiens, UniProt P08684).
Sequence of Cytochrome P450 3A4 (P08684 whole entry): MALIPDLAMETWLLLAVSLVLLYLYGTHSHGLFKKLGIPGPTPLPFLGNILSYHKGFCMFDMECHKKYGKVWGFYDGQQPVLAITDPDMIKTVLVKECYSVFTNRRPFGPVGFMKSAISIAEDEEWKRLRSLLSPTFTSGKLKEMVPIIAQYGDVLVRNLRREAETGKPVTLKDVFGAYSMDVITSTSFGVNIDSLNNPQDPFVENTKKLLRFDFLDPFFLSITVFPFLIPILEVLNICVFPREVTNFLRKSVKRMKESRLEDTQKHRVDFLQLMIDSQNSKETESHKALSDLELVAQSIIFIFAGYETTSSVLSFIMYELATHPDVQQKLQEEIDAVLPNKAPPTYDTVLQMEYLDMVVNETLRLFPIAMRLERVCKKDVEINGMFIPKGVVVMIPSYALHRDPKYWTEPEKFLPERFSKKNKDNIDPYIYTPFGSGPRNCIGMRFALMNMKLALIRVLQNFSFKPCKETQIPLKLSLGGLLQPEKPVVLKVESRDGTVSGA
The subject of assay [10] is Streptococcus sp. 'group A'. Nature of the assay: Streptococcus pyogenes SK(-)GAS viability under kanamycin – luminescence, BacTiterGlo, confirmation, counter-screen for streptokinase expression inhibitor project, dose response (AID 1900). The class given is functional, organism-based.
The target in a further assay is T3, Streptokinase A (Streptococcus pyogenes serotype M1, UniProt P10520).
T3 sequence (P10520 whole entry): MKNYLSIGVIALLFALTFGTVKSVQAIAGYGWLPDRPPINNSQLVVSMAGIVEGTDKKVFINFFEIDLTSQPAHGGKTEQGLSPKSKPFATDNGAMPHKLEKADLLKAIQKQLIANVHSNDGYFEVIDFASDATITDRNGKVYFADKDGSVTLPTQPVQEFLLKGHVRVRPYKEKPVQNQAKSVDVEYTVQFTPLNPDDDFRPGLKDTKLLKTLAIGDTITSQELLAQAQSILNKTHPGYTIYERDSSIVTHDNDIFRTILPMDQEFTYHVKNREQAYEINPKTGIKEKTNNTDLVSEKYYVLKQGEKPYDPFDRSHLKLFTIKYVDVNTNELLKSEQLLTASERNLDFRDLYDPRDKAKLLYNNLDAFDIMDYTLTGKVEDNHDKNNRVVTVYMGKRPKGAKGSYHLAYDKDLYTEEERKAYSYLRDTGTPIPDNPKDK
Put plainly: viability-normalized secreted streptokinase activity reduction – plasminogen activation absorbance, OD405, dose response (AID 1914).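 Also: secreted streptokinase activity via plasminogen activation per viability signal from cell pellet.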 It is filed as functional, Streptococcus pyogenes M1 GAS.

Assay [11] addresses T4, Calpain-2 catalytic subunit (Sus scrofa, UniProt P43367).
T4 sequence (P43367 whole entry): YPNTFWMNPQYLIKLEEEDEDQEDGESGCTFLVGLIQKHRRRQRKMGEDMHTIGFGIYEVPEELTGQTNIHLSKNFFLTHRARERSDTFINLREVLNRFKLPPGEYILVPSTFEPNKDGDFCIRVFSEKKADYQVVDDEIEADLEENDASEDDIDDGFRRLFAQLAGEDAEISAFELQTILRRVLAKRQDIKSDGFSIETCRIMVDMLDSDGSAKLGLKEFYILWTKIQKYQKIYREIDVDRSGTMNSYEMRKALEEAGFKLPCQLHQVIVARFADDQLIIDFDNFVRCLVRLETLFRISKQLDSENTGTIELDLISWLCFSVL
Put plainly: m-calpain protease blockers, concentration series – biochemical, fluorogenic peptide substrate, dose response (AID 1420). The class given is functional.

The subject of the next assay is Streptococcus. Put plainly: GAS UMAA2166 growth inhibition – luminescence, BacTiterGlo, counter-screen for streptokinase expression inhibitor project, dose response (AID 1915).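 Also: potency for reduction of bacterial viability or growth.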 The class given is functional, organism-based.
Assay [12] deals with T5, High affinity choline transporter 1 (Homo sapiens, UniProt Q9GZV3).
T5 sequence (Q9GZV3 whole entry): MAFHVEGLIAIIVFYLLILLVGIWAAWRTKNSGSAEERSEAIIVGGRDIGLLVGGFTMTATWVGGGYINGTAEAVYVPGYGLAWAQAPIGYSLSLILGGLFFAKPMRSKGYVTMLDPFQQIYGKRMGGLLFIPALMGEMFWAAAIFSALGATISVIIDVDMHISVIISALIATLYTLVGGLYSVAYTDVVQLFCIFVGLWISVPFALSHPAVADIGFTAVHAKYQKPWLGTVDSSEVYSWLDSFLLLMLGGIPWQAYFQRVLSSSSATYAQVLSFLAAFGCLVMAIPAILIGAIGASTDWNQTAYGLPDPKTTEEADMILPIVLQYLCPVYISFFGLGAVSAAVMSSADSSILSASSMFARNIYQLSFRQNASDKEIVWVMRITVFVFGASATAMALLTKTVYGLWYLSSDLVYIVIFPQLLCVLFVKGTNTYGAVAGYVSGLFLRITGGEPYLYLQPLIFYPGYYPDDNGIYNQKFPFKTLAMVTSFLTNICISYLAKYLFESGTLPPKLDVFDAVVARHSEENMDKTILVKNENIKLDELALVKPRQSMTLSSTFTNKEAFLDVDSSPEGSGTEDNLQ
Put plainly: human choline transporter blockers, potency – cell-based, 5-point CRC, membrane potential dye, dose response (AID 504840). The class given is functional.

The nature of assay [13]: Trypanosoma cruzi growth suppression in host cells – NIH3T3 host cells, beta-gal luminescence, confirmation (AID 2044).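 Also: intracellular parasites grown in NIH/3T3 mouse fibroblasts as host cells; luminescent beta-galactosidase reporter signal from transgenic T. cruzi replicating inside host cells; inhibitors lower the luminescence signal.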 The class given is functional, cell-based.
Assay [14] is described as follows: NIH3T3 cell viability loss – ATP luminescence, mouse fibroblasts, counter-screen, dose response (AID 2010).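 Also: cells exposed to compound for about 90 hours before reading.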 It is filed as functional, cell-based.
Assay [15] in a line: Luminescence Cell-Based Dose Retest to Confirm Inhibitors of Cancer Stem Cells. [Related pubchem assays (depositor defined):AID2717, AID2721]. It is filed as functional. Particulars: Homo sapiens.

Molecules are shown by their SMILES. The source made the active and inactive calls.

For orientation: IC50 means the point on the concentration scale where inhibition reaches its midpoint. What is called AC50 is the concentration giving half of the maximal activity seen. For orientation: EC50 means the concentration at which the effect is half-maximal.

Sequence of Peroxisome proliferator-activated receptor gamma/Nuclear receptor coactivator 3 (P37231 whole entry): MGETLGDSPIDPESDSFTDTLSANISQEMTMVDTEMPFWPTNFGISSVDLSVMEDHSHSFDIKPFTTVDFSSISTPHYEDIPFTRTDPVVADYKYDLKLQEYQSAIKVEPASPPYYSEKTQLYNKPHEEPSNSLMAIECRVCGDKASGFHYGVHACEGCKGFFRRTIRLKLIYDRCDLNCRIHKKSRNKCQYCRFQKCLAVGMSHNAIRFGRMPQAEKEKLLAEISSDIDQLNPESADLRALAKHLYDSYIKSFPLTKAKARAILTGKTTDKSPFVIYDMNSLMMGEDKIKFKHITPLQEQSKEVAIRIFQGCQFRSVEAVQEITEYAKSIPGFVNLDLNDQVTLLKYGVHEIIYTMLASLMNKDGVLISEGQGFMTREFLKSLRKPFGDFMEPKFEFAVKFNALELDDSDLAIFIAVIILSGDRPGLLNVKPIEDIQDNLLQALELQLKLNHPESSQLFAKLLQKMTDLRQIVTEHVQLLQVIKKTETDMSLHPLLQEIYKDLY
Sequence of Peroxisome proliferator-activated receptor gamma/Nuclear receptor coactivator 3 (Q9Y6Q9 whole entry, further chain): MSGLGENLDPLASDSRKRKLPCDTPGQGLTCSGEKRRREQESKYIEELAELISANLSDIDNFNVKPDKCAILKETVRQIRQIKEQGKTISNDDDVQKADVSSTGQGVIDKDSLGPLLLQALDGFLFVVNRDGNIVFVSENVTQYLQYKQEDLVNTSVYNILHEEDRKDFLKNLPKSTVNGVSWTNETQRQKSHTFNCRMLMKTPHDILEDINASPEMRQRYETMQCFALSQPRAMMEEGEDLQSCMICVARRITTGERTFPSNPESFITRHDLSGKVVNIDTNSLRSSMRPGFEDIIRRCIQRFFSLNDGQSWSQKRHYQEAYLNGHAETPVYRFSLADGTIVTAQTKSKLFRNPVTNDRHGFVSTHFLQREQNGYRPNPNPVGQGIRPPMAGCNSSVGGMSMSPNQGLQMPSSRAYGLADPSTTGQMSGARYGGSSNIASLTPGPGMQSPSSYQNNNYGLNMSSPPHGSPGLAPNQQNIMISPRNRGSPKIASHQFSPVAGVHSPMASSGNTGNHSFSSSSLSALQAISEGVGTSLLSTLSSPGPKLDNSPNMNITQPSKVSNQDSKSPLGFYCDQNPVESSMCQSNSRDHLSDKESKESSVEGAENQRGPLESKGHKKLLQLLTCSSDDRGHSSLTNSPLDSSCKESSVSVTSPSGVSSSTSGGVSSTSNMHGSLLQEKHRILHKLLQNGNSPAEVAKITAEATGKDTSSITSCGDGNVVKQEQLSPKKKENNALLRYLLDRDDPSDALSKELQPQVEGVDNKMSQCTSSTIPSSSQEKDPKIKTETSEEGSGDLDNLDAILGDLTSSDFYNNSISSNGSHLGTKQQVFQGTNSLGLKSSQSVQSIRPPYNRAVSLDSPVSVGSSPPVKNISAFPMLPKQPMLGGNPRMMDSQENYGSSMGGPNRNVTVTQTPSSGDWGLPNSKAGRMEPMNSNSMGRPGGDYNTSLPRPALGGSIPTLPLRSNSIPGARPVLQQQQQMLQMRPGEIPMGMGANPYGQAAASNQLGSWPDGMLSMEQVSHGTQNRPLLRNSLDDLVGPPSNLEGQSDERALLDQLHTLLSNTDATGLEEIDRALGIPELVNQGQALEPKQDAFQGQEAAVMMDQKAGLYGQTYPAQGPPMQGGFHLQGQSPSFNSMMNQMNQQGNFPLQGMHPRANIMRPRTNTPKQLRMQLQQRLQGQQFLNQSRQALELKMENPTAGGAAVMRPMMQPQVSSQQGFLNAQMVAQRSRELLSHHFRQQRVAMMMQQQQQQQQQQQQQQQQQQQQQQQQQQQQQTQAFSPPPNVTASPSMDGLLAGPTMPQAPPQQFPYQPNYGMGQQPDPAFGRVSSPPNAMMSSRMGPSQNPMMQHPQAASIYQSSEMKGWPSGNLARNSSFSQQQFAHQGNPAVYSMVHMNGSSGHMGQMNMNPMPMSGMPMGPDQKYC
Sequence of Peroxisome proliferator-activated receptor gamma/Nuclear receptor coactivator 1 (P37231 whole entry): as the sequence (P37231 whole entry) above
Sequence of Peroxisome proliferator-activated receptor gamma/Nuclear receptor coactivator 1 (Q15788 whole entry, further chain): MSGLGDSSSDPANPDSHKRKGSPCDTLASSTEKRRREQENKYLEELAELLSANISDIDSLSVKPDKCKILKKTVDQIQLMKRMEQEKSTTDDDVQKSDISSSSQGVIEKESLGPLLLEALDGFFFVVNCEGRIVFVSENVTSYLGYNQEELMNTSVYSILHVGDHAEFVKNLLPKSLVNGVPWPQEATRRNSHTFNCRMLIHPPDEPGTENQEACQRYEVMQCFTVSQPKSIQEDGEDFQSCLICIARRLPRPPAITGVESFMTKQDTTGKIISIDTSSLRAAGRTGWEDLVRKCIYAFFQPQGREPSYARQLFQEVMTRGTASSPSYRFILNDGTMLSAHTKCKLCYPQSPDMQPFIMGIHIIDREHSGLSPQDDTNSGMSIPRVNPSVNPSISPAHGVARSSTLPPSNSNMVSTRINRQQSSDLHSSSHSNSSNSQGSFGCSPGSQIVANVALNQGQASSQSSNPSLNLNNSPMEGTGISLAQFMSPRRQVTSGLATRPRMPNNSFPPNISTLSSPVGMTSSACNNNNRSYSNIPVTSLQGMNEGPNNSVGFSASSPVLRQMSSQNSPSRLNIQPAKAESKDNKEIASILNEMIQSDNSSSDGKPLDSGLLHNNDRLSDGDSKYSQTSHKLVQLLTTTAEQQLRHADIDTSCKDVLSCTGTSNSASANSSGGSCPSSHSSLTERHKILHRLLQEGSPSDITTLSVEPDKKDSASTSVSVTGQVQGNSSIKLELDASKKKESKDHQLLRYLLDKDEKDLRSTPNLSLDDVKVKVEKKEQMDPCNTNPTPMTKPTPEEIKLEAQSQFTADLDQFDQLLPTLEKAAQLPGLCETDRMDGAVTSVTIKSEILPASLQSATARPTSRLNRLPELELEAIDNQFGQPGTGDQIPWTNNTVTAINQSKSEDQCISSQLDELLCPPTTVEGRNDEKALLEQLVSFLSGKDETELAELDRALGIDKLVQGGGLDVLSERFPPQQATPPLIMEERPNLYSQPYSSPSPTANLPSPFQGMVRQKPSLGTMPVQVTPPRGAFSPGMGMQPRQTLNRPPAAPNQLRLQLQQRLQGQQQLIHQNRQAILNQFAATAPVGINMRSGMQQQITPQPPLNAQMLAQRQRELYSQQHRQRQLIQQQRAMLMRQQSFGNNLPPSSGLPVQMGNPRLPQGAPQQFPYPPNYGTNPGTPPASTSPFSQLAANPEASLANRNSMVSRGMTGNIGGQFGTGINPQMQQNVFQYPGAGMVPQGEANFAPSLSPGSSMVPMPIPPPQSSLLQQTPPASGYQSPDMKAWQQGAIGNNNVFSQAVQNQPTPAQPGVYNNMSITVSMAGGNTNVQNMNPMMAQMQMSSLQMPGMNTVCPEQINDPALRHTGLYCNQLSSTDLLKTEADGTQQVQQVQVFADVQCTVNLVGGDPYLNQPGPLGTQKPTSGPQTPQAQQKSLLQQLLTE
Sequence of Induced myeloid leukemia cell differentiation protein Mcl-1 (Q07820 whole entry): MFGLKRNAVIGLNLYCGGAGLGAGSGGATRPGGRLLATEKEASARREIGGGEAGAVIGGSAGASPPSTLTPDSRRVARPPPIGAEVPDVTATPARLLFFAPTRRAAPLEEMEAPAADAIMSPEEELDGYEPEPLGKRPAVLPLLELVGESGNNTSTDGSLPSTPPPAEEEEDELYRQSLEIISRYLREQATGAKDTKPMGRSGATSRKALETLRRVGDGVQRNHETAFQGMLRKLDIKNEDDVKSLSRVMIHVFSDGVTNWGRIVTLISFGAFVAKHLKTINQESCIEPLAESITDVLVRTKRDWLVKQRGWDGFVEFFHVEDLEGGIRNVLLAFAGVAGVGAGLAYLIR

Take `COc1ccc(Cl)c(N2CCN(CCCNC(=O)Nc3ccc(C)cc3)CC2)c1`: the 50% inhibitory concentration (IC50) in assay [1] is 6.56 µM (active).
For the molecule `Cc1ccc(S(=O)(=O)N(C)C[C@H]2Oc3c(cccc3N(C)C)C(=O)N([C@@H](C)CO)C[C@@H]2C)cc1`, the figures for the AC50 in [2], in assay [3] and in [4] were > 52 µM (inactive), 0.726 µM (active) and 0.341 µM (active), respectively.
In the case of `O=C(Nc1cccc(-c2ccc(N3CCCCC3)nn2)c1)c1ccc(Br)o1`, the CC50 in assay [5] is > 40 µM (active).
For the molecule `Cc1ccc(NS(=O)(=O)c2ccc(OCC(=O)NCc3cccnc3)cc2)cc1`, the EC50 in assay [6], in [7] and in [8] was > 79.4 µM (not active) in each case.
In the case of `CCOC(=O)c1c(N)sc(N)c1C(=O)OCC`, the IC50 in assay [9] is listed as > 50 µM (not active).
Consider `CN1c2ccccc2C(C)(C)C12C=Nc1c(cc(N3CCOCC3)c3ccccc13)O2` (stereo not drawn), for which the concentration for half-maximal inhibition (IC50) in assay [9] is reported as > 50 µM (not active). For the same molecule, the EC50 at Protein RecA is 50.5 µM (inconclusive). Also, at Cytochrome P450 3A4, the AC50 is 4.47 µM (inconclusive).
`Cc1ccc(C(=O)Nc2nnc(-c3cccs3)s2)cc1C`: the EC50 in [6] is 9.65 µM (active); in [7], 9.78 µM (active); in [8] it was > 79.4 µM (not active).
As to `Oc1c(Cl)cc(Cl)cc1C(C#Cc1ccccc1)N1CCOCC1` (stereo not drawn), the EC50 in assay [10] was 16.6 µM (active); on Streptokinase A, 26.8 µM (active); in the assay on Streptococcus, 48.9 µM (active). Besides, the half-inhibitory concentration (IC50) in assay [11] was 12.8 µM (not active).
As for `O=c1cc(-c2ccccc2)oc2cc(OCc3ccccc3)cc(O)c12`, the IC50 in assay [11] is on record as > 50 µM (not active).
For `C=CCn1c(=O)c2ccccc2n2c(SCc3nc(N)nc(Nc4ccccc4C)n3)nnc12`, the EC50 in assay [6], in [7] and in assay [8] was > 79.4 µM (not active) throughout.
In the case of `CCCCNC(=S)N/N=C1\CCCCc2ccccc21`, in assay [11], the concentration for half-maximal inhibition (IC50) is recorded as 11.2 µM (not active).
As to `O=C(NC(=S)NCC1CCCO1)c1ccc(Br)o1` (stereo not drawn), the half-inhibitory concentration (IC50) in [11] was 1.43 µM (not active).
For the molecule `O=C(NNc1nc(-c2ccccc2)cs1)c1ccccc1`, in [5], the CC50 was > 40 µM (active). In addition, the IC50 in [12] was 14.5 µM (active).
For `CCOc1ccc(-c2ccc(/C=C3/C(=N)N4C=CSC4=NC3=O)o2)c([N+](=O)[O-])c1`, the IC50 in assay [1] was 1.48 µM (active).
Take `COc1ccc(C(=O)N2c3ccccc3CC2C)cc1OC` (stereo not drawn): the IC50 in assay [1] is 0.799 µM (not active).
As for `N#C[C@@H]1[C@H](c2ccc(C#CC3CCCCC3)cc2)[C@@H](CO)N1C(=O)c1cccc(F)c1`, the results for the concentration at half-maximal activity (AC50) in assay [2] and in assay [4] were 35.8 µM (active) and 36.1 µM (active), respectively.
Take `c1ccc(C2=Nn3c(nnc3-c3ccco3)SC2)cc1`: the IC50 in assay [9] is reported as > 50 µM (not active).
For the molecule `CCCCOc1ccc(C(=O)N/C(=C/C=C/c2ccccc2)C(=O)O)cc1`, the EC50 in [6], in assay [7] and in [8] was > 79.4 µM (not active) in each case.
With `O=C(CCc1ccc(Oc2cc([N+](=O)[O-])cc([N+](=O)[O-])c2)cc1)N1CCCCCC1`, the EC50 was 0.187 µM (active) in [13] and > 30 µM (not active) in assay [14]. Moreover, the CC50 in assay [5] is > 40 µM (active). Moreover, in [15], the AC50 is 4.73 µM (active).
On to `COc1ccc(C(CC(=O)c2ccccc2)S(=O)(=O)c2ccc(C)cc2)cc1` (stereo not drawn), for which the CC50 in assay [5] was > 40 µM (active).
On to `CC1CCCCN1Cc1cnc(Cl)s1` (stereo not drawn), for which, in assay [11], the IC50 is on record as > 50 µM (not active).
As for `c1ccc(-c2c3c4ccccc4nc-3[nH]c3ccccc23)cc1`, the CC50 in assay [5] was > 40 µM (active). The AC50 in assay [15] is 2.03 µM (active).

Source of the values: ChEMBL document CHEMBL1201862, “PubChem BioAssay data set” (2004).
